melting point | SMILES
102 °C (dec.) | Cl.O=S(=O)(Cl)c1ccc2cnccc2c1
80 °C | c1ccc(CSc2ccc3cnccc3c2)cc1 [compound (4), 6-(benzylthio)isoquinoline]
